Experimental data from US20260215418A1, “HYDROCARBON ALCOHOLS AND THEIR DERIVATIVES AS SYNERGISTS IN PESTICIDE ACTIVITY” (priority 2022, published 2026).
Entries after “also recorded” stand apart in the source; their conditions may differ.

System: Musca domestica L.
Test: Contact test on non-porous tile, Musca domestica
Type: in vivo
Details: for synergizing effect on Azamethiphos / synergizing effect on Cypermethrin / synergizing effect on Spinosad: Musca domestica L.; for synergizing effect on Azamethiphos: synergist applied with Azamethiphos; for synergizing effect on Cypermethrin: synergist applied with Cypermethrin; for synergizing effect on Spinosad: synergist applied with Spinosad; for mortality at 680 µg/mL: 0.68 mg/ml
Description: 1 ml of Composition 1 was applied to the tile. […] 1 ml of Composition 8a was distributed on the tile. […] 1 ml of Composition 8a was distributed on a tile. […] At the end of the 30 minutes, the flies were transferred to an untreated area.
1 ml of Composition 3 was applied to the tile. […] 1 ml of Composition 8c was distributed on the tile. […] 1 ml of Composition 8c was distributed on a tile. […] At the end of the 30 minutes, the flies were transferred to an untreated area.
1 ml of Composition 9a was distributed on the tile. […] 1 ml of Composition 9a was distributed on a tile. […] At the end of the 30 minutes, the flies were transferred to an untreated area. […] 1 ml of Composition 10a was distributed on the tile. […] 1 ml of Composition 10a was distributed on a tile. […] At the end of the 30 minutes, the flies were transferred to an untreated area. […] 1 ml of Composition 8c was distributed on the tile. […] 1 ml of Composition 8c was distributed on a tile. […] At the end of the 30 minutes, the flies were transferred to an untreated area.
1 ml of Composition 5a, was distributed on the tile. […] 1 ml of Composition 6a was distributed on the tile. […] 1 ml of Composition 7a was distributed on the tile.
1 ml of Composition 3 was distributed on the tile. […] 1 ml of Composition 9a was distributed on the tile. […] 1 ml of Composition 11a was distributed on a tile. […] 1 ml of Composition 12a was distributed on a tile.
1 ml of Composition 3 was distributed on the tile. […] 1 ml of Composition 17a was distributed on a tile. […] 1 ml of Composition 18a was distributed on a tile. […] Each experiment (A-C) was conducted in duplicate.
1 ml of Composition 23a was distributed on the tile. […] 1 ml of Composition 20a was distributed on a tile. […] Each experiment (A-B) was conducted in duplicate.
1 ml of Composition 3 was distributed on the tile. […] 1 ml of Composition 25a was distributed on a tile. […] Each experiment (A-B) was conducted in duplicate.
1 ml of Composition 23a was distributed on the tile. […] 1 ml of Composition 27a was distributed on a tile. […] Each experiment (A-B) was conducted in duplicate.
1 ml of Composition 26a was distributed on a tile. […] 1 ml of Composition 26b was distributed on a tile. […] 1 ml of Composition 26c was distributed on a tile.
1 ml of Composition 22a was distributed on a tile. […] 1 ml of Composition 22b was distributed on a tile. […] 1 ml of Composition 22c was distributed on a tile.
1 ml of Composition 23a was distributed on the tile. […] 1 ml of Composition 44a was distributed on a tile.
1 ml of Composition 33 was distributed on a tile. […] 1 ml of Composition 33 was distributed on a tile. […] At the end of the 30 minutes, the flies were transferred to an untreated area.
1 ml of Composition 1 was distributed on the tile. […] 1 ml of Composition 34 was distributed on a tile. […] 1 ml of Composition 34 was distributed on a tile. […] At the end of the 30 minutes, the flies were transferred to an untreated area.
1 ml of Composition 3 was distributed on the tile. […] 1 ml of Composition 31a was distributed on a tile. […] 1 ml of Composition 31b was distributed on a tile. […] 1 ml of Composition 31b was distributed on a tile. […] At the end of the 30 minutes, the flies were transferred to an untreated area. […] 1 ml of Composition 38a was distributed on a tile. […] 1 ml of Composition 38a was distributed on a tile. […] At the end of the 30 minutes, the flies were transferred to an untreated area.
G) According to the invention. 1 ml of Composition 40a was distributed on a tile. […] Subsequently, after waiting for the solvent to evaporate, 10 flies were placed on top of the treated til

[1] = Musca domestica, single substance alone, 48 h, read-out: Mortality %/time (h)

## Oleic alcohol [Oleic alcohol 95%]
  synergizing effect on Azamethiphos: high synergizing effect
  synergizing effect on Cypermethrin: synergistic effect, comparable to the activity shown by PBO; also recorded: good synergizing effect
Single substance alone, 0.15 mg/ml, 48 h
  Mortality %/time (h): 1/48 ^ %
Single substance alone, 0.51 mg/ml, 48 h
  Mortality %/time (h): 5/48 ^ %
Single substance alone, 0.88 mg/ml, 48 h
  Mortality %/time (h): 8/48 ^ %
Single substance alone, 28.53 mg/ml, 48 h
  Mortality %/time (h): 18/48 ^ %

## CCCCCCCCOC(=O)OCCCCCCCC [dioctyl carbonate]
  synergizing effect on Azamethiphos: excellent synergizing effect
  synergizing effect on Cypermethrin: high synergizing effect
  synergizing effect on Spinosad: fine synergizing effect
[1]
  mortality at 680 µg/mL: 33%

## CCCCCCCC/C=C\CCCCCCCCOC(C)=O [Oleyl acetate]
  synergizing effect on Azamethiphos: high synergizing effect
  synergizing effect on Cypermethrin: high synergizing effect
  synergizing effect on Spinosad: fine synergizing effect
Musca domestica, single substance alone, 0.15 mg/ml, 48 h, read-out: Mortality %/time (h)
  mortality at 150 µg/mL: 0%
Musca domestica, single substance alone, 0.51 mg/ml, 48 h, read-out: Mortality %/time (h)
  mortality at 510 µg/mL: 0%
[1]
  mortality at 680 µg/mL: 60%
Musca domestica, single substance alone, 1.02 mg/ml, 48 h, read-out: Mortality %/time (h)
  mortality at 1020 µg/mL: 0%
Musca domestica, single substance alone, 33.00 mg/ml, 48 h, read-out: Mortality %/time (h)
  mortality at 33000 µg/mL: 18%
